Test results as given in patent US11661398B2, “Cellular transport system for transferring a sulfonic acid construct carrying a cargo into the cytoplasm of a cell” (Scientist of Fortune, S.A., priority 2017, dated 2023).
Peptide text beside a SMILES is read from it.

How the values were obtained:
TK090 = experiment: Complementation of NAD+ auxotrophic strain; format: cell-based, E. coli; conditions: for concentration needed to support growth as NAD+ source: TK090[pSsuABC, pPnGGT*]; for growth with compound as sole source of NAD+: spent MS minimal medium, 25 μM N-picolyl-sulfobutyramide, different plasmid combinations
Procedure: FIG. 27. Utilization of NAD^+ precursors. NAD^+ auxotrophic strain TK090 [pSsuABC; pPnGGT*] was grown in MS minimal medium containing 0.5% glucose, 1 mM MgSO4, 0.4 mM leucine, 0.5 mM IPTG, 100 ng ml^−1 aTc and varying concentrations of either 3-picolylamine (a) or nicotinic acid (b). […] Dots represent the average of three independent measurements with standard deviations shown as error bars.
Selection experiments with NAD^+ auxotrophic strains are prone to contamination with unwanted NAD^+ sources and therefore demand special preparation of the precultures and medium. For the precultures, all tested strains were incubated overnight in MS minimal medium supplemented with 0.5% glucose, 1 mM MgSO4, 0.4 mM L-leucine and 5 μM nicotinic acid. To guarantee complete consumption of nicotinic acid, precultures were then diluted 100-fold in MS minimal medium supplemented only with 0.5% glucose, 1 mM MgSO4 and 0.4 mM L-leucine, but no additional NAD^+ source. Following an overnight incubation period, NAD^+-deprived cells were washed twice in the same medium and used for growth assays.
To prepare the medium for final growth assays, MS minimal medium was supplemented with 0.5% glucose, 1 mM MgSO4, 0.4 mM L-leucine and 25 μM N-picolyl-sulfobutyramide (see below for description of synthesis). To remove all NAD^+ contaminants, the medium was inoculated overnight with strain TK090, which can utilize free NAD^+ precursors, but cannot take up or hydrolyze N-picolyl-sulfobutyramide due to the absence of SsuABC and PnGGT*. After an overnight incubation period, cells were separated from the medium by centrifugation and the supernatant was filtered using a Minisart 0.22 μm High Flow Syringe Filter (Sartorius, Goettingen, Germany). The filtered supernatant was then supplemented with the respective antibiotics and inducers and used for growth assays.

TK054 = experiment: Leucine auxotrophy complementation with peptide vector; format: cell-based, E. coli; conditions: 1 mM peptide, plasmid pACT3/6×His_PnGGT ΔN24, 0.5 mM IPTG, 37° C., 5 days or more
Procedure: (§1) LB Miller broth (Becton Dickinson, Sparks, Md., USA) was used as standard growth medium for bacterial cultures (Sambrook, 2001). For the preparation of competent cells, SOB medium was used (Hanahan, 1983). Unless stated otherwise, growth experiments in selective medium were carried out in M9 minimal medium (Sambrook, 2001) supplemented with 0.5% glucose, 1 μg mL^−1 thiamine, 0.5 mM IPTG and 1 mM alanyl-γ-glutamyl-leucine (>95% purity, custom synthesized by Pepscan, Lelystad, Netherlands). For growth experiments on solid medium Bacto Agar (Becton Dickinson) was added to a final concentration of 1.5%. Growth experiments in liquid medium were performed either in a Tecan Infinite 200 Pro plate reader (Tecan, Mannedorf, Switzerland) or in a Biolector Basic Microbiorector System (m2p-labs, Baesweiler, Germany). All growth experiments were performed at 37° C. […]
The possibility to express 6×His_PnGGT ΔN24 in the cytoplasm of E. coli and the enzyme's relaxed substrate specificity (Imaoka et al., 2010) opened up the possibility to selectively hydrolyze γ-glutamyl compounds within the cytoplasm. […] As a cargo, leucine was chosen, whose successful release could be easily detected by restoring growth to a leucine auxotrophic strain. […]

TK054 ΔpcnB = experiment: as above; format: cell-based, E. coli; conditions: 1 mM peptide, 6×His_PnGGT ΔN24 expressed, IPTG present
Procedure: as §1
To verify that the beneficial effects to growth with Ala-γ-Glu-Leu were caused by activity reducing mutations in pcnB, the entire gene was removed from the unmutated leucine auxotrophic selection strain, resulting in strain TK054 ΔpcnB. On M9 minimal medium containing 0.5% glucose and 1 mM Ala-γ-Glu-Leu as the only source of leucine, no growth of this strain was detected if the inducer IPTG was omitted (FIG. 6a). […]

TK082 = experiment: In vivo hydrolysis of sulfobutanoyl-p-nitroanilide and sulfobutanoyl-AMC; format: cell-based, E. coli
Procedure: Strain TK082 was transformed with plasmids as indicated in the text and grown at 37° C. in MS minimal medium supplemented with 0.5% glucose, 1 mM MgSO4 and 0.4 mM L-leucine to an OD600 of 0.5. At that stage, the synthesis of PnGGT* and/or SsuABC was induced for 2 hours by adding 0.5 mM IPTG and 100 ng mL^−1 aTc. Following this synthesis period, cells were washed in the same medium to remove proteins that had been released into the medium by cell lysis. After an additional centrifugation step, cells were resuspended in MS minimal medium supplemented with 0.5% glucose, 1 mM MgSO4, 0.4 mM L-leucine, 0.5 mM IPTG, 100 ng mL^−1 aTc and 0.5 mM sulfobutanoyl-p-nitroanilide or sulfobutanoyl-AMC (see below for description of synthesis) and incubated in a Tecan Infinite 200 Pro plate reader at 37° C. To monitor cell density and the release of 4-nitroaniline, absorbance was constantly measured at 600 nm and 410 nm. The release of AMC was monitored by measuring the fluorescence at λex=350 nm and λem=450 nm. To determine the influence of competition for the sulfonate transporter SsuABC, different concentrations of pentanesulfonate (Sigma Aldrich) were added to the medium.

BW25113 ΔleuB (TK080) = experiment: Growth on different sulfur sources; format: cell-based, E. coli; conditions: 1 mM sulfur source, minimal medium, 0.5% glucose, 0.4 mM leucine
Procedure: FIG. 21: Growth of E. coli on sulfonates. Strains TK080 (a; BW25113 ΔleuB) and TK082 (b; BW25113 ΔleuB ΔssuEADCB ΔtauD) were grown in MS minimal medium supplemented with 0.5% glucose, 0.4 mM L-leucine, 1 mM MgCl2 and 1 mM of a sulfur source. TK080 was able to use the majority of the tested sulfur sources with a similar efficiency as sulfate. […] Dots represent the average of three independent measurements with standard deviations shown as error bars.
For the experiments relating to the sulfonate based synthetic transport system, unless stated otherwise, growth experiments in selective medium were carried out in sulfur free MS minimal medium (4 mM citric acid, 1 mM MgCl2, 20 mM NH4Cl, 50 mM KH2PO4 and 1×NTA mix (10 μM nitrilotriacetic acid, 3 μM CaCl2, 3 μM FeCl3, 1 μM MnCl2, 0.3 μM ZnCl2, 0.3 μM H3B3, 0.3 μM CrC3, 0.3 μM COCl2, 0.3 μM CuCl2, 0.3 μM Ni2C, 0.3 μM Na2MoO4, 0.3 μM Na2SeO3)) supplemented with 0.5% glucose. MgSO4 (1 mM), MgCl2 (1 mM), L-leucine (0.4 mM), IPTG (0.5 mM), aTc (100 ng mL-1), nicotinic acid (various concentrations), 3-picolylamine (various concentrations) and sulfonates (various concentrations) as indicated in the text. […] Synthesis schemes for sulfobutanoyl-p-nitroanilide and other sulfonates are given below.
The sulfonate transporters SsuABC and TauABC transport a wide variety of sulfonate compounds (Eichhorn et al., 2000) and can thus be exploited for the present synthetic transport system. As such, the uptake and utilization of sulfobutanoyl-L-leucine was assessed. The leucine auxotrophic strain BW25113 ΔleuB was tested for growth in minimal medium supplemented with 0.5% glucose, 0.4 mM leucine, 0.4 mM isoleucine and 1 mM of a sulfur-containing compound as the sole sulfur source.

TK088[pSsuABC] = experiment: Growth of histidine auxotrophic strain in liquid medium; format: cell-based, E. coli; conditions: liquid MS minimal medium, 0.5 mM compound, pACT3 versus pPnGGT*
Procedure: FIG. 22: Identification of GGT* activity and refactoring of the ssuABC operon. (a) Cell free extracts of strain TK018 synthesizing either EcGGT, EcGGT D433N, PnGGT or PnGGT D405N were incubated with 2 mM of the substrates γ-glutamyl-p-nitroanilide or sulfobutanoyl-p-nitroanilide (5), respectively. The release of 4-nitroaniline was quantified by measuring the absorption at 410 nm. (b) Plasmid map of the three-dimensional RBS-library for refactoring the ssuABC operon using 144 RBS variants per gene. RBS library sequences are underlined. Arrows point towards the final RBS sequences observed in plasmid pSsuABC. […] (e) Growth of strain TK088[pSsuABC]transformed with the empty vector pACT3 (black circles) or plasmid pPnGGT* (white circles) in liquid MS minimal medium supplemented with 0.5% glucose, 1 mM MgSO4, 0.4 mM L-leucine, 0.5 mM IPTG, 100 ng ml^−1 aTc and 0.5 mM sulfobutanoyl-L-histidine. Bars and dots from panels (a), (d) and (e) represent the average of three independent measurements with standard deviations shown as error bars. […]

[1] = substrate: CC(C)C[C@H](NC(=O)CCCS(=O)(=O)O)C(=O)O; experiment: purified protein, by the assay type; conditions: other: kinetic studies cited in Example 11, conditions not given

## NCc1cccnc1 [3-picolylamine]
TK090; MS minimal medium
  concentration necessary to complement the NAD+ auxotrophy compared to nicotinic acid: 500 to 1000 fold
  concentration needed to support growth as NAD+ source: above 50 μM
TK090
  growth with compound as sole source of NAD+: no growth was observed

## CC(C)C[C@H](NC(=O)CC[C@H](NC(=O)[C@H](C)N)C(=O)O)C(=O)O [Ala-γ-Glu-Leu, alanyl-γ-glutamyl-leucine] (HELM PEPTIDE1{A.[gGlu].L}$$$$V2.0)
TK054
  growth with peptide as sole source of leucine: poor growth
TK054 ΔpcnB
  growth with peptide as sole source of leucine: grew rapidly

## O=C(CCCS(=O)(=O)[O-])NCc1cccnc1.[Na+] [N-picolyl-sulfobutyramide, N-(3-Pyridinylmethyl)sulfobutyramide sodium salt]
TK090
  growth with compound as sole source of NAD+: only observed when both the sulfonate transporter SsuABC and PnGGT* were synthesized simultaneously

## O=C(O)c1cccnc1 [nicotinic acid]
TK090; MS minimal medium
  concentration needed to support growth as NAD+ source: sub-micromolar concentrations

## CCCCCS(=O)(=O)O [pentanesulfonate, reference compound]
TK082; TK082[pSsuABC, pPnGGT*]
  effect of competitor on release of 4-nitroaniline from 0.5 mM sulfobutanoyl-p-nitroanilide: sufficient to slow down the release of 4-nitroaniline
  effect of competitor on release of AMC from 0.5 mM sulfobutanoyl-AMC: sufficient to slow down the release of AMC in the presence of SsuABC

## Cc1cc(=O)oc2cc(NC(=O)CCCS(=O)(=O)O)ccc12 [sulfobutanoyl-AMC, N-(4-Methyl-2-oxo-2H-1-benzopyran-7-yl)sulfobutyramide]
BW25113 ΔleuB (TK080)
  growth with compound as sole sulfur source: utilized with a lower efficiency
TK082; 0.5 mM compound, different plasmid combinations
  in vivo release of AMC from the compound: some release of the dye was detected in a strain expressing only PnGGT*

## O=C(CCCS(=O)(=O)O)N[C@@H](Cc1c[nH]cn1)C(=O)O [sulfobutanoyl-L-histidine]
BW25113 ΔleuB (TK080)
  growth with compound as sole sulfur source: comparable efficiencies
TK088[pSsuABC]
  growth with compound as sole histidine source: Entirely equivalent results
TK088[pSsuABC]; listed as sulfubutanoyl-L-histidine
  growth with compound as sole histidine source: grew significantly faster and to higher cell densities

B1: PnGGT ΔN24 D405N (Pseudomonas nitroreducens; D405N) (protein)
chain: MRGSHHHHHHGSACELTLDGGAVAAPDQYGAKVAAEILKKGGNAVDAAVATAFTLAVTYPEAGNIGGGGFMTLYVDGKPYFLDYREIAPKAATKTMYLNEKGEVIENLSLVGAKAAGVPGTVMGLWEAHQRFGKLKWSELLTPAIGYAQTGFKVADQQYQYRQDAIALFNGKTNFGDYFGTMKPGEVFKQPELAKTLERIADKGPDDFYKGETAKLLIAQMKQDGGLITSDDLVDYQAKWREPMRIDWQGNTLYTAPLPSSGGIALAQLIGIKEQRAADFKGVELNSAKYIHLLSEIEKRVFADRADYLGDPQFSKVPVAQLTDPKYIAKRAGEVNPDAISATEKVRPGLEPHQTTHFSIVDKDGNAVSNTYTLNWDFGSGVVVKGAGFLLNDEMDNFSSKPGVANAFGVVGSDANAIEPGKRMLSSMSPSIVTRDGHVSLVLGTPGGSRIFTSIFQVLNNVYDFHLPLEKAVAAQRVHHQLLPKDTIYYDAYAPLPGKVADELKAMGYTLEDQGWNMGDIQAIRVNGKALETASDPRGRGVGMVVKP
[1]
  Km: 734 µM
